We go through 1 compound from article PMC7257206, “A novel sphingosylphosphorylcholine and sphingosine-1-phosphate receptor 1 antagonist, KRO-105714, for alleviating atopic dermatitis” (Journal of Inflammation (London, England), 2020).

One data set concerns the target T1, 3A4 (Homo sapiens, UniProt P08684).
T1 construct: gene CYP3A4
Put plainly: biochemical. The conditions noted are these: read-out: CYP450 IC50. More on the design: CYP450 isoform inhibition assay, IC50.

For the next data set, the target named is T2, 1A2 (Homo sapiens, UniProt P05177).
T2 construct: gene CYP1A2
T2 sequence (P05177 1-516): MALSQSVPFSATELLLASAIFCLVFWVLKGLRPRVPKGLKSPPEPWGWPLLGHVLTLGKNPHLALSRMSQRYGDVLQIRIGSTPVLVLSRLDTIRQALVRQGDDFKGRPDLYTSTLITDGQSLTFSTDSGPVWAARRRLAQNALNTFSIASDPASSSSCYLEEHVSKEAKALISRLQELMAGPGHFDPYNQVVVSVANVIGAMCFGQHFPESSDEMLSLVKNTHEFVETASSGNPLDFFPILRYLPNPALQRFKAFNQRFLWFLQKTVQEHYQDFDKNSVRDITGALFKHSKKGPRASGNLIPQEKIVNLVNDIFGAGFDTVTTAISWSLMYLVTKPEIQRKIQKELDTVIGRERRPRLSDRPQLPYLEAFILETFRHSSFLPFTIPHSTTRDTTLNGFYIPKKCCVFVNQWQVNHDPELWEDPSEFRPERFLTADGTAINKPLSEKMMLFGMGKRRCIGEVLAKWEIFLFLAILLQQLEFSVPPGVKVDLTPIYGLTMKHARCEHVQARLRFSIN
Put plainly: biochemical. More on the design: CYP450 isoform inhibition assay, IC50. To be noted: read-out: CYP450 IC50.

A further data set deals with T3, 2D6 (Homo sapiens, UniProt P10635).
T3 construct: gene CYP2D6
The experiment in a line: biochemical. More on the design: CYP450 isoform inhibition assay, IC50. The conditions noted are these: read-out: CYP450 IC50.

Data set [1] deals with T4, sphingosine-1-phosphate receptor 1 (S1P1) (Homo sapiens, UniProt P21453).
T4 construct: gene S1PR1; hS1P1 stably expressed in HEK-293 cells (membrane pellets)
Put plainly: […]-GTPγS binding assay (SPC-stimulated) in membranes of HEK-293 cells stably expressing hS1P1. The format is biochemical. For orientation: GTPγS is a poorly hydrolysed GTP analogue; its binding reports G protein activation.

In a further data set the target is T5, 2C19 (Homo sapiens, UniProt P33261).
T5 construct: gene CYP2C19
The experiment in a line: biochemical. Set-up: CYP450 isoform inhibition assay, IC50. The conditions noted are these: read-out: CYP450 IC50.

A further data set has as its target T6, 2C9 (Homo sapiens, UniProt P11712).
T6 construct: gene CYP2C9
Put plainly: biochemical.

For data set [2], the target named is T7, hERG potassium channel (Homo sapiens, UniProt Q12809).
T7 construct: gene KCNH2
The experiment in a line: biochemical.

The target in data set [3] is T7, hERG potassium channel. Put plainly: in vitro. More on the design: hERG binding assay, [3H]astemizole displacement. The procedure:
KRO-105714 also had no cardiotoxicity in the hERG potassium channel binding assay (IC50 > 10 μM) (Additional file 1: Table S1B).

T7 sequence (Q12809 whole entry): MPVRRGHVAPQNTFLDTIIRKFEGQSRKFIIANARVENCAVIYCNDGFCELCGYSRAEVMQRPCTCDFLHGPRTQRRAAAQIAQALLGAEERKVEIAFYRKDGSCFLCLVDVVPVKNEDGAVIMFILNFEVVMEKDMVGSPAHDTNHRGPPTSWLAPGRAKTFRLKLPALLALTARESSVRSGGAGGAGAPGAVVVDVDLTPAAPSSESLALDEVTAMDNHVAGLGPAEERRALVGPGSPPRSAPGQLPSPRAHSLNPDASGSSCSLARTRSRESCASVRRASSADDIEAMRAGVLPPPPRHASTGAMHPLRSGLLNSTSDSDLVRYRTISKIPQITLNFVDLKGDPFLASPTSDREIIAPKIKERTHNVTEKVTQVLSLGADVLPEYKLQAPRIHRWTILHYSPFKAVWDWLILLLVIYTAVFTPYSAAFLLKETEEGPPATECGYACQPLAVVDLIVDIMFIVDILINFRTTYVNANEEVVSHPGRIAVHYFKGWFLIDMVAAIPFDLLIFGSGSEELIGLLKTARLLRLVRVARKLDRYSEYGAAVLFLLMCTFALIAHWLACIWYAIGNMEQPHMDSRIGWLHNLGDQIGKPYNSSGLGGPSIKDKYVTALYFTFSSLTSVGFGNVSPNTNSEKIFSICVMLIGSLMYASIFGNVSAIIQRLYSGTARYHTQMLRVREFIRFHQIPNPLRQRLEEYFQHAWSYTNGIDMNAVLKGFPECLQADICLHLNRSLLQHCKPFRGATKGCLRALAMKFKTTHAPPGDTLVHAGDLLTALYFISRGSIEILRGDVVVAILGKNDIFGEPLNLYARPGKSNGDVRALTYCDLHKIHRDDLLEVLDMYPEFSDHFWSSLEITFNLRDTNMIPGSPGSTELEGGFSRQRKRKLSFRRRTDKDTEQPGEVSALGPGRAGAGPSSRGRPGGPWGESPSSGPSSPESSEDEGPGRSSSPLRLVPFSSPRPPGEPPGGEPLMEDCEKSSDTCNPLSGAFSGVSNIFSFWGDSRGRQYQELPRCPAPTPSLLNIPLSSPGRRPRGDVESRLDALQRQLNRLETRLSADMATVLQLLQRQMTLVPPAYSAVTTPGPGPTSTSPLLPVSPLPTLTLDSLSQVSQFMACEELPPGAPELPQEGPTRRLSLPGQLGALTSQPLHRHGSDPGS
T1 sequence (P08684 whole entry): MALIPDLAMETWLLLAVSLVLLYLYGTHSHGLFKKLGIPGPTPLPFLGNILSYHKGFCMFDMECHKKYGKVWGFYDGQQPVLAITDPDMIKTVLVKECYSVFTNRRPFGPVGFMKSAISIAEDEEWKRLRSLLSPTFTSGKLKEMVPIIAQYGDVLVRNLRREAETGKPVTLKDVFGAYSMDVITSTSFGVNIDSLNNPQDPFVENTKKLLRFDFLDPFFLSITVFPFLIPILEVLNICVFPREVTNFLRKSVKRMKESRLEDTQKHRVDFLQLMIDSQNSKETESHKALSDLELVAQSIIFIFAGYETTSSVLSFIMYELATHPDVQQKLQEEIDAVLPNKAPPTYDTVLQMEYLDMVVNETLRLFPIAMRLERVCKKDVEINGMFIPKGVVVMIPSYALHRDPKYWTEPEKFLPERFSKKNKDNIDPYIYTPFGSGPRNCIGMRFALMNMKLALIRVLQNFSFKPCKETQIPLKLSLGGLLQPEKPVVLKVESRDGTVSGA
T5 sequence (P33261 whole entry): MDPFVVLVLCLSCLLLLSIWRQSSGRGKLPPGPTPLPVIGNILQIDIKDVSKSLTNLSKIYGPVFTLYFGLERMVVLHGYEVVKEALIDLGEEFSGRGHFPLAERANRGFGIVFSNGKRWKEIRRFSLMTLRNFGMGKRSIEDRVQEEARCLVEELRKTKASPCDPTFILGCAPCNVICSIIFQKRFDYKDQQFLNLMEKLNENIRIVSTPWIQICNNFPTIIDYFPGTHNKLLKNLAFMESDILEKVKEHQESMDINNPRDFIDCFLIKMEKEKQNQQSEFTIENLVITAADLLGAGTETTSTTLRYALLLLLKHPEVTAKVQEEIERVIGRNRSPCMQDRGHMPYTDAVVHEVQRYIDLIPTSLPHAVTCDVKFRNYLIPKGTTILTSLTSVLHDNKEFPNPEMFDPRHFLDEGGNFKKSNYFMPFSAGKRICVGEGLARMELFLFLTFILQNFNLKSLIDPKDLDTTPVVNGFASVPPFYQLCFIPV
T4 sequence (P21453 whole entry): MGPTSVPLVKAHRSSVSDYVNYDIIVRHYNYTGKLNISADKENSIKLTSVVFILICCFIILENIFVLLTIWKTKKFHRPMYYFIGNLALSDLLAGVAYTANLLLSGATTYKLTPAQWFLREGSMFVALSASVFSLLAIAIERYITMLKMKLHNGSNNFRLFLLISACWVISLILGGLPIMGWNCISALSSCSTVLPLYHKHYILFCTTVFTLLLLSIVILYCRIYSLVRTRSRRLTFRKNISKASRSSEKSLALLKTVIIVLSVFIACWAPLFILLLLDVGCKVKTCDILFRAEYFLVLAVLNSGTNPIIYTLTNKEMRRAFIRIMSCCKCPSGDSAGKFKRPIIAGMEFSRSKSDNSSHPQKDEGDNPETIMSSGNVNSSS
T6 sequence (P11712 whole entry): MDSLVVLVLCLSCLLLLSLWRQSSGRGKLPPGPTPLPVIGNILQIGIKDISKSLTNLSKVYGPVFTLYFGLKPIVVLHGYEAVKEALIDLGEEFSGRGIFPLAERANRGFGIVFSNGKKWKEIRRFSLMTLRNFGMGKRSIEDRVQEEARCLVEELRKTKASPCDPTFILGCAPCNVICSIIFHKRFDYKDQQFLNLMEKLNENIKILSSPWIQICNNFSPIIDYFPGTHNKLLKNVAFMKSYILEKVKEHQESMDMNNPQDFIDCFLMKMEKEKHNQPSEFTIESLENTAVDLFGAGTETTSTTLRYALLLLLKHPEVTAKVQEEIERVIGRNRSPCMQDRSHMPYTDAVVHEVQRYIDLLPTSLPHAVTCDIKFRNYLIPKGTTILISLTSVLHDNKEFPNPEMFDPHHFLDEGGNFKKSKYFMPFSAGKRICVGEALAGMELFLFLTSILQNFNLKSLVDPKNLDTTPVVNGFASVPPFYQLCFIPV
T3 sequence (P10635 whole entry): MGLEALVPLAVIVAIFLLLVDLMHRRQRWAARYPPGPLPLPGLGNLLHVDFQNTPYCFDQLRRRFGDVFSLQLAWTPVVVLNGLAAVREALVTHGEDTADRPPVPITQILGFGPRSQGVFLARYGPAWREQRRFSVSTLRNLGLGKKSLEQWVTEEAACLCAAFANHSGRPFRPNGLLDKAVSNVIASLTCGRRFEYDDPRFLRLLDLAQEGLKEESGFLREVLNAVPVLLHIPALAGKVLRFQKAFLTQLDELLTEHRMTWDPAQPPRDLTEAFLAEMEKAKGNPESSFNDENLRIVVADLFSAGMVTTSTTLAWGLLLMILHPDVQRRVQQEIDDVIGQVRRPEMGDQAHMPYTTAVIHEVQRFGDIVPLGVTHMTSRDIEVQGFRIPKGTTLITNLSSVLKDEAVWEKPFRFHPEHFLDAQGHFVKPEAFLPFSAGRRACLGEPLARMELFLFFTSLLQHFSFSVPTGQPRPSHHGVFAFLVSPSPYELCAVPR

One may read the IC50 as the concentration that inhibits the measured activity by half. For `COc1ccccc1N1CCN(c2nc(NC(=O)C(C)(C)C)c(C(=O)c3ccccc3)s2)CC1` [KRO-105714], the IC50 is more than 10 µM at 3A4; more than 10 µM on 1A2; more than 10 µM at 2D6; 0.0792 µM in data set [1]; more than 10 µM at 2C19; more than 10 µM against 2C9. Also, the IC50 on hERG potassium channel [2] was more than 10 µM. Moreover, the inhibition at 10 µM at hERG potassium channel [3] (read-out: %-Inhibition/[3H]Astemizole -5) was 45%. The inhibition at 1 µM on hERG potassium channel [3] (read-out: %-Inhibition/[3H]Astemizole -6) stood at 3%.
